According to US5344959A, “Tetrahydronaphthyl and cyclopropyl substituted 1,3-butadienes having retinoid-like activity” (Allergan, Inc., priority 1993, dated 1994):

Tested on: ornithine decarboxylase (ODC)
Test: inhibition of TPA induction of ornithine decarboxylase (ODC)
Assay type: in vivo
Settings: inhibition of TPA-induced ODC activity; Table 1
From the text: The retinoid-like activity of these compounds is confirmed through the classic measure of retinoic acid activity involving the effects of retinoic acid on ornithine decarboxylase. The original work on the correlation-between retinoic acid and decrease in cell proliferation was done by Verma & Boutwell, Cancer Research, 1977, 37,2196-2201. That reference discloses that ornithine decarboxylase (ODC) activity increased precedent to polyamine biosynthesis. It has been established elsewhere that increases in polyamine synthesis can be correlated or associated with cellular proliferation. Thus, if ODC activity could be inhibited, cell hyperproliferation could be modulated. Although all causes for ODC activity increases are unknown, it is known that 12-0-tetradecanoylphorbol-13-acetate (TPA) induces ODC activity. Retinoic acid inhibits this induction of ODC activity by TPA.

Going from `CCOC(=O)[C@@H]1C[C@@H]1/C=C/C=C(\C)c1ccc2c(c1)C(C)(C)CCC2(C)C` (relative stereo) [Compound 1, Ethyl cis-2-[4-methyl-4-(5,5,8,8,-tetramethyl-5,6,7,8-tetrahydro-2-naphthyl)-(E),(E) 1-3-butadienyl]-1-cyclopropane carboxylate] to `CCOC(=O)[C@@H]1C[C@H]1/C=C/C=C(\C)c1ccc2c(c1)C(C)(C)CCC2(C)C` (relative stereo) [Compound 2, Ethyl trans 2-[4-methyl-4(5,6,7,8-tetrahyro-5,5,8,8-tetramethyl-2-naphthyl)E,E 1-3 butadienyl] 1-cyclopropane carboxylate], the IC80 falls from 8.3 nM to 2.1 nM (4-fold).

Going from `CCOC(=O)[C@@H]1C[C@@H]1/C=C/C=C(\C)c1cc2c(cc1C)C(C)(C)CCC2(C)C` (relative stereo) [Compound 5, Ethyl cis-2-[4-methyl-4-(3,5,5,8,8,-pentamethyl-5,6,7,8-tetrahydro-2-naphthyl)-(E),(E) 1-3-butadienyl]-1-cyclopropane carboxylate] to `CCOC(=O)[C@@H]1C[C@H]1/C=C/C=C(\C)c1cc2c(cc1C)C(C)(C)CCC2(C)C` (relative stereo) [Compound 7, Ethyl trans-2-[4-methyl-4-(3,5,5,8,8,-pentamethyl-5,6,7,8-tetrahydro-2-naphthyl)-(E),(E) 1-3-butadienyl]-1-cyclopropane carboxylate], the IC80 falls from over 300 nM to 250 nM.

Compared with `C/C(=C\C=C\[C@@H]1C[C@H]1C(=O)O)c1ccc2c(c1)C(C)(C)CCC2(C)C` (relative stereo) [Compound 3, Trans-2-[4-methyl-4-(5,5,8,8,-tetramethyl-5,6,7,8-tetrahydro-2-naphthyl)-(E),(E) 1-3-butadienyl]-1-cyclopropane carboxylic acid], `C/C(=C\C=C\[C@H]1C[C@H]1C(=O)O)c1ccc2c(c1)C(C)(C)CCC2(C)C` (relative stereo) [Compound 4, Cis-2-[4-methyl-4-(5,5,8,8,-tetramethyl-5,6,7,8-tetrahydro-2-naphthyl)-(E),(E) 1-3-butadienyl]-1-cyclopropane carboxylic acid] is 13-fold higher in IC80: 2.6 nM for the first, 35 nM for the second.

In the case of `C/C(=C\C=C\[C@H]1C[C@H]1C(=O)O)c1cc2c(cc1C)C(C)(C)CCC2(C)C` (relative stereo) [Compound 6, Cis-2-[4-methyl-4-(3,5,5,8,8,-pentamethyl-5,6,7,8-tetrahydro-2-naphthyl)-(E),(E) 1-3-butadienyl]-1-cyclopropane carboxylic acid], the IC80 is reported as 638 nM.

Tested on: ornithine decarboxylase (ODC)
Test: not given
Settings: general statement, known; cited from earlier work

In the case of `CCCCCCCCCCCCCC(=O)O[C@@H]1[C@@H](C)[C@@]2(O)[C@@H](C=C(CO)C[C@]3(O)C(=O)C(C)=C[C@@H]23)[C@@H]2C(C)(C)[C@]12OC(C)=O` [12-0-tetradecanoylphorbol-13-acetate], the “induction of ODC activity” value is listed as “induces”.

Same assay, conditions: general statement, literature; cited from earlier work

In the case of `CC1=C(/C=C/C(C)=C/C=C/C(C)=C/C(=O)O)C(C)(C)CCC1` [Retinoic acid], the “inhibition of induction of ODC activity by TPA” value is given as “inhibits”.
